This note sets out measurements from ChEMBL document CHEMBL5584266, “Novel selective proline-based peptidomimetics for human cathepsin K inhibition” (Bioorg Med Chem Lett, 2024).

Molecules are shown by their SMILES.

One experiment deals with Cathepsin B (Homo sapiens, UniProt P07858). Put plainly: Binding affinity to human Cathepsin B assessed as inhibition constant.
The next experiment deals with T1, Cathepsin K (Homo sapiens, UniProt P43235).
T1 sequence (P43235 whole entry): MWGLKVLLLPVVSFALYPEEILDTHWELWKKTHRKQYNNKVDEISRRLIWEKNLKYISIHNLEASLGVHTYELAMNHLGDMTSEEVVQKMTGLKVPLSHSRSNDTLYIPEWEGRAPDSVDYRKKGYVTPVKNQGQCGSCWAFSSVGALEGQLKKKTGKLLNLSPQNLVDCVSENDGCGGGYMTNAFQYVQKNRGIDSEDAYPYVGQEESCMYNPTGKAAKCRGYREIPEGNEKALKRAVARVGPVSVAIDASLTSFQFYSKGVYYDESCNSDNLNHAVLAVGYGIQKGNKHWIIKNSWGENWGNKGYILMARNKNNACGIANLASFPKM
Put plainly: Binding affinity to human Cathepsin K assessed as inhibition constant.

The target in another experiment is Procathepsin L (Homo sapiens, UniProt P07711). Put plainly: Binding affinity to human Cathepsin L assessed as inhibition constant.
A further experiment addresses Cathepsin S (Homo sapiens, UniProt P25774). The experiment is described as follows: Binding affinity to human Cathepsin S assessed as inhibition constant.

Sequence of Procathepsin L (P07711 whole entry): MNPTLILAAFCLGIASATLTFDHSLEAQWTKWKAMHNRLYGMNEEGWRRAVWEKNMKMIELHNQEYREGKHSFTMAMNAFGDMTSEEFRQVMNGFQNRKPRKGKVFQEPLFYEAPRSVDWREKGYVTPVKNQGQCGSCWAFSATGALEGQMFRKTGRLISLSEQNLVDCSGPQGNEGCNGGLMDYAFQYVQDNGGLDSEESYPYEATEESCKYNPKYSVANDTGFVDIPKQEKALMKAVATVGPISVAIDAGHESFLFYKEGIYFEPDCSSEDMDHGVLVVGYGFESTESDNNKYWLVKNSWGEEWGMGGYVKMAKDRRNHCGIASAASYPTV
Sequence of Cathepsin S (P25774 whole entry): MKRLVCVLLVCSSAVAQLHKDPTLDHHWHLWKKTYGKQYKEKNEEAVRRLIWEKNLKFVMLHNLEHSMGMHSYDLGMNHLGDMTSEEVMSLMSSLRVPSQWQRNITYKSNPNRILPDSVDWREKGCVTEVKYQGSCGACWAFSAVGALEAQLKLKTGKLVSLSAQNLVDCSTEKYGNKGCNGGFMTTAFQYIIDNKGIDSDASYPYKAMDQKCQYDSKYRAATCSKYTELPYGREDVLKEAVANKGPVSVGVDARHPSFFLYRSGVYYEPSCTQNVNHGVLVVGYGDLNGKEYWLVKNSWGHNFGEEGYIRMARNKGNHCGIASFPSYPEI

As for `CC(C)C[C@H](NC(=O)c1cc(C(C)(C)C)nn1C)C(=O)NC1(C#N)CC1`, the Ki at Cathepsin B is over 100 µM; at Cathepsin K (read-out: Ki), about 0.008 µM; at Procathepsin L (read-out: Ki), about 0.008 µM; at Procathepsin L (read-out: pKi (converted)) it was 0.00158 µM; on Cathepsin S, 0.0794 µM.

Consider `C[C@H]1C[C@@H](C(=O)NC2(C#N)CC2)N(S(=O)(=O)c2cc(C(F)(F)F)nn2C)C1`, for which the Ki on Cathepsin B and on Procathepsin L (read-out: pKi (converted)) was over 100 µM throughout.

For the compound `C[C@H]1C[C@@H](C(=O)NC2(C#N)CC2)N(C(=O)c2cc(C(F)(F)F)nn2C)C1`, the Ki at Cathepsin B and at Procathepsin L (read-out: pKi (converted)) was over 100 µM throughout.

Turning to `C[C@H]1C[C@@H](C(=O)NC2(C#N)CC2)N(C(=O)c2ccccc2)C1`, the Ki on Cathepsin B and at Procathepsin L (read-out: pKi (converted)) was over 100 µM throughout.

With `C[C@H]1C[C@@H](C(=O)NC2(C#N)CC2)N(C(=O)OC(C)(C)C)C1`, the Ki on Cathepsin B and on Procathepsin L (read-out: pKi (converted)) was over 100 µM throughout.

Take `C[C@H]1C[C@@H](C(=O)NC2(C#N)CC2)N(C(=O)c2cc(C(C)(C)C)nn2C)C1`: the Ki at Cathepsin B and on Procathepsin L (read-out: pKi (converted)) was over 100 µM throughout.

For `C[C@H]1C[C@@H](C(=O)NC2(C#N)CC2)N(C(=O)Cc2ccccc2)C1`, the Ki on Cathepsin B and on Procathepsin L (read-out: pKi (converted)) was over 100 µM throughout.

Take `CC(C)(F)C[C@H](N[C@@H](c1ccc(-c2ccc(S(C)(=O)=O)cc2)cc1)C(F)(F)F)C(=O)NC1(C#N)CC1` [ODANACATIB]: the Ki at Cathepsin K (read-out: pKi (converted)) is 0.0002 µM.
